pEC50, pIC50: −log10 of the molar value. Bounds are passed on as bounds.

For assay [1], the target named is T1, GLS1 (purified recombinant human GAC) (Homo sapiens, UniProt O94925).
T1 sequence (O94925 55-598 isoform O94925-3 limits assumed): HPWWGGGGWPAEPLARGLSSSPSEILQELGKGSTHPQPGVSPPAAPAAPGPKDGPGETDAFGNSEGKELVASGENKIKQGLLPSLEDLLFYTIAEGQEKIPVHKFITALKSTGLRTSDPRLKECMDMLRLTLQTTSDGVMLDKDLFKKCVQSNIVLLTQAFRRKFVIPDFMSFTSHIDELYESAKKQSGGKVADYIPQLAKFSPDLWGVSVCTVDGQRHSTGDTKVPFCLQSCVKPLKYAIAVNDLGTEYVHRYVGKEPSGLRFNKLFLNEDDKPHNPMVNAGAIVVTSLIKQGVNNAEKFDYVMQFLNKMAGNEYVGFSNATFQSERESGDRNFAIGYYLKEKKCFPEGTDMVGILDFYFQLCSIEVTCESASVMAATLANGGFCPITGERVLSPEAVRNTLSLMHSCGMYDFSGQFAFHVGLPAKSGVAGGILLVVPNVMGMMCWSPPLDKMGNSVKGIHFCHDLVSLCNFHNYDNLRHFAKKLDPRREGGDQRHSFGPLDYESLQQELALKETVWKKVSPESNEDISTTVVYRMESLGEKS
Briefly: GLS1 enzymatic activity assay (dual-coupled, Amplex UltraRed/resorufin). The class given is biochemical. The method, boiled down: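 In this coupled fluorometric format, phosphate-activated GAC (2 nM, 50 mM phosphate) is pre-exposed to compound for 10 min before 1 mM glutamine addition. Product is tracked as resorufin (530/590 nm) over time or at 20 min, and potency is derived by logistic fitting.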

The test system of assay [2] is A549 cells. Kind of assay: A549 proliferation (viability) assay, Cell Titer Fluor, 72 hours. The assay is classed as cell-based. The following applies: Homo sapiens. The method, boiled down: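 Fluorescence read-out (Cell Titer Fluor, 30 min at 37 °C after reagent) after 72 h compound exposure of A549 cells; EC50 by four-parameter logistic curve fit. Cells: 1000/well, RPMI 1640 + 10% dialyzed FBS, 0.5% DMSO final.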

Consider `O=C(Cc1cccc(OC(F)(F)F)c1)Nc1ccn(CCCCn2cc(C(=O)NCc3ccccc3)nn2)c(=O)c1` [Example 51, N-benzyl-1-[4-(2-oxo-4-{2-[3-(trifluoromethoxy)phenyl]acetamido}-1,2-dihydropyridin-1-yl)butyl]-1H-1,2,3-triazole-4-carboxamide], for which the pIC50 in assay [1] was above 7.00. The pEC50 in assay [2] was 5.30 to 6.30.

In the case of `O=C(Cc1ncc(Cl)cc1F)Nc1ccn(CCC(F)Cn2cc(C(=O)NCc3cccc(OC(F)(F)F)c3)nn2)c(=O)c1` (stereo not drawn) [Example 243, 1-(4-{4-[2-(5-chloro-3-fluoropyridin-2-yl)acetamido]-2-oxo-1,2-dihydropyridin-1-yl}-2-fluorobutyl)-N-{[3-(trifluoromethoxy)phenyl]methyl}-1H-1,2,3-triazole-4-carboxamide], the pIC50 in assay [1] was above 7.00. Besides, in assay [2], the pEC50 was 6.30 to 7.00.

Turning to `COCC1CCN(CC(=O)Nc2ccn(CCC(F)Cn3cc(C(=O)NCc4cccc(OC(F)(F)F)c4)nn3)c(=O)c2)CC1` (stereo not drawn) [Example 272, 1-[2-fluoro-4-(4-{2-[4-(methoxymethyl)piperidin-1-yl]acetamido}-2-oxo-1,2-dihydropyridin-1-yl)butyl]-N-{[3-(trifluoromethoxy)phenyl]methyl}-1H-1,2,3-triazole-4-carboxamide], the pIC50 in assay [1] was above 7.00. Moreover, the pEC50 in assay [2] is 6.30 to 7.00.

Consider `O=C(CC1CCCCC1)Nc1ccn(CCCCn2cc(C(=O)NCc3cccc(C(F)(F)F)c3)nn2)c(=O)c1` [Example 141, 1-{4-[4-(2-cyclohexylacetamido)-2-oxo-1,2-dihydropyridin-1-yl]butyl}-N-{[3-(trifluoromethyl)phenyl]methyl}-1H-1,2,3-triazole-4-carboxamide], for which the negative logarithm of the IC50 (pIC50) in assay [1] is above 7.00. Further, in assay [2], the pEC50 was above 7.00.

Consider `CC(C)COC(=O)Nc1ccn(CCCCc2ccc(NC(=O)Cc3ccccc3)nn2)c(=O)n1` [Example 98, 2-methylpropyl N-(2-oxo-1-{4-[6-(2-phenylacetamido)pyridazin-3-yl]butyl}-1,2-dihydropyrimidin-4-yl)carbamate], for which the pIC50 in assay [1] was above 7.00. Moreover, in assay [2], the negative logarithm of the EC50 (pEC50) is 6.30 to 7.00.

Regarding `COc1cccc(CNC(=O)c2cn(CCCCn3ccc(NC(=O)Cc4cccc(OC(F)(F)F)c4)cc3=O)nn2)c1` [Example 65, N-[(3-methoxyphenyl)methyl]-1-[4-(2-oxo-4-{2-[3-(trifluoromethoxy)phenyl]acetamido}-1,2-dihydropyridin-1-yl)butyl]-1H-1,2,3-triazole-4-carboxamide], in assay [1], the pIC50 is above 7.00. In assay [2], this compound showed a pEC50 of 5.30 to 6.30.

With `COCCNC(=O)c1nnc(CCCCn2ccc(NC(=O)OCc3ccccc3)nc2=O)s1` [Example 121, benzyl N-[1-(4-{5-[(2-methoxyethyl)carbamoyl]-1,3,4-thiadiazol-2-yl}butyl)-2-oxo-1,2-dihydropyrimidin-4-yl]carbamate], the negative-log IC50 (pIC50) in assay [1] was 5.30 to 6.30. In assay [2], the pEC50 was below 5.30.

For `O=C(Cc1ccccc1)Nc1ccn(CCCCCn2ccc(NC(=O)Cc3ccccc3)nc2=O)c(=O)n1` [Example 71, N-(2-oxo-1-{5-[2-oxo-4-(2-phenyl-acetamido)-1,2-dihydropyrimidin-1-yl]pentyl}-1,2-dihydropyrimidin-4-yl)-2-phenylacetamide], in assay [1], the negative logarithm of the IC50 (pIC50) was 5.30 to 6.30. Further, in assay [2], the pEC50 is below 5.30.

For the compound `O=C(CC1CCC1)Nc1ccn(CCC(F)Cn2cc(C(=O)NCc3cc(C(F)(F)F)ccn3)nn2)c(=O)c1F` (stereo not drawn) [Example 332, 1-{4-[4-(2-cyclobutylacetamido)-3-fluoro-2-oxo-1,2-dihydropyridin-1-yl]-2-fluorobutyl}-N-{[4-(trifluoromethyl)pyridin-2-yl]methyl}-1H-1,2,3-triazole-4-carboxamide], the pIC50 in assay [1] was above 7.00. The pEC50 in assay [2] was above 7.00.

Turning to `O=C(Nc1ccn(CCC(F)Cn2cc(C(=O)NCc3cccc(OC(F)(F)F)c3)nn2)c(=O)c1F)C(=O)N1CCOCC1` (stereo not drawn) [Example 417, 1-(2-fluoro-4-{3-fluoro-4-[2-(morpholin-4-yl)-2-oxoacetamido]-2-oxo-1,2-dihydropyridin-1-yl}butyl)-N-{[3-(trifluoromethoxy)phenyl]methyl}-1H-1,2,3-triazole-4-carboxamide], the pIC50 in assay [1] was 6.30 to 7.00. Besides, in assay [2], the pEC50 was 5.30 to 6.30.

For `NC(=O)CNC(=O)c1cn(CCCCn2ccc(NC(=O)Cc3cccc(OC(F)(F)F)c3)cc2=O)nn1` [Example 136, 2-({1-[4-(2-oxo-4-{2-[3-(trifluoromethoxy)phenyl]acetamido}-1,2-dihydropyridin-1-yl)butyl]-1H-1,2,3-triazol-4-yl}formamido)acetamide], the pIC50 in assay [1] is 6.30 to 7.00. In assay [2], this compound gave a pEC50 below 5.30.

On to `O=C(CC1CCCCC1)Nc1ccn(CCCCc2nnc(C(=O)NCc3cccc(OC(F)(F)F)c3)s2)c(=O)c1` [Example 440, 5-{4-[4-(2-cyclohexylacetamido)-2-oxo-1,2-dihydropyridin-1-yl]butyl}-N-{[3-(trifluoromethoxy)phenyl]methyl]-1,3,4-thiadiazole-2-carboxamide], for which the pIC50 in assay [1] is above 7.00. The compound also showed a pEC50 in assay [2] above 7.00.

For the compound `Cc1ccc(CNC(=O)c2cn(CCCCn3ccc(NC(=O)OC(C)(C)C)cc3=O)nn2)cn1` [Example 143, tert-butyl N-{1-[4-(4-{[(6-methylpyridin-3-yl)methyl]carbamoyl}-1H-1,2,3-triazol-1-yl)butyl]-2-oxo-1,2-dihydropyridin-4-yl}carbamate], the pIC50 in assay [1] is 6.30 to 7.00. For the same compound, in assay [2], the pEC50 was 5.30 to 6.30.

Regarding `CC(=O)Nc1ccn(CCCCc2nnc(NC(=O)Cc3ccccc3)s2)c(=O)n1` [Example 18], in assay [1], the pIC50 is 6.30 to 7.00. In assay [2], this compound had a pEC50 below 5.30.

Consider `CNC1CCC(CC(=O)Nc2ccn(CCCCn3cc(C(=O)NCc4cccc(OC(F)(F)F)c4)nn3)c(=O)c2)CC1` (stereo not drawn) [Example 209, 1-[4-(4-{2-[4-(methylamino)cyclohexyl]acetamido}-2-oxo-1,2-dihydropyridin-1-yl)butyl]-N-{[3-(trifluoromethoxy)phenyl]methyl}-1H-1,2,3-triazole-4-carboxamide], for which, in assay [1], the negative-log IC50 (pIC50) was above 7.00. Also, the pEC50 in assay [2] was 5.30 to 6.30.

On to `CC(C)(C)OC(=O)Nc1ccn(CCCCn2cc(C(=O)NCc3cccc(C(F)(F)F)c3)nn2)c(=O)c1` [Example 139, tert-butyl N-(2-oxo-1-{4-[4-({[3-(trifluoromethyl)phenyl]methyl}carbamoyl)-1H-1,2,3-triazol-1-yl]butyl}-1,2-dihydropyridin-4-yl)carbamate], for which, in assay [1], the pIC50 was above 7.00. Further, the pEC50 in assay [2] was 6.30 to 7.00.

As for `O=C(Cc1ccccn1)Nc1nnc(CCCCn2ccc(NC(=O)CC3CCCC3)c(F)c2=O)s1` [Example 504, 2-cyclopentyl-N-[3-fluoro-2-oxo-1-(4-{5-[2-(pyridin-2-yl)acetamido]-1,3,4-thiadiazol-2-yl}butyl)-1,2-dihydropyridin-4-yl]acetamide], the pIC50 in assay [1] is above 7.00. Also, the negative logarithm of the EC50 (pEC50) in assay [2] is 6.30 to 7.00.

As for `Cc1ccc(CNC(=O)c2cn(CCCCn3ccc(NC(=O)Cc4cccc(OC(F)(F)F)c4)cc3=O)nn2)cn1` [Example 70, N-[(6-methylpyridin-3-yl)methyl]-1-[4-(2-oxo-4-{2-[3-(trifluoromethoxy)phenyl]acetamido}-1,2-dihydropyridin-1-yl)butyl]-1H-1,2,3-triazole-4-carboxamide], in assay [1], the pIC50 is above 7.00. This compound showed a pEC50 in assay [2] of 5.30 to 6.30.

The pIC50 is the negative decadic logarithm of the IC50, by convention in mol/L. As usually defined, the pEC50 is the EC50 on a negative log10 scale, so that one unit is a factor of ten. Read a high pEC50 as a small EC50.

The values are drawn from patent US20160002204A1 (Board of Regents, The University of Texas System, priority 2014, published 2016).
